From ChEMBL document CHEMBL3885881, “DrugMatrix”

Organism: Rattus norvegicus
Assay: DrugMatrix - Regimen: Daily Repeat
Assay type: toxicity, organism-based, Sprague-Dawley
Set-up: regimen Daily Repeat, gender Male, age 6-8 weeks
Conditions: in vivo, po, route oral GAVAGE, vehicle 100 % WATER; for ABSOLUTE BASOPHIL / ABSOLUTE EOSINOPHIL / ABSOLUTE LYMPHOCYTE / ABSOLUTE MONOCYTE / ABSOLUTE SEGMENTED NEUTROPHIL / BASOPHIL / EOSINOPHIL / ERYTHROCYTE COUNT / HEMATOCRIT / HEMOGLOBIN / LEUKOCYTE COUNT / LYMPHOCYTE / MEAN CORPUSCULAR HEMOGLOBIN / MEAN CORPUSCULAR HEMOGLOBIN CONCENTRATION / MEAN CORPUSCULAR VOLUME / MONOCYTE / NEUTROPHIL / NUCLEATED RED BLOOD CELLS / PLATELET COUNT: tissue Blood; for ALANINE AMINOTRANSFERASE / ALBUMIN / ALKALINE PHOSPHATASE / ASPARTATE AMINOTRANSFERASE / BLOOD UREA NITROGEN / CARBON DIOXIDE / CHLORIDE / CHOLESTEROL / CREATINE PHOSPHOKINASE / CREATININE / GLUCOSE / LACTATE DEHYDROGENASE / LIPASE / PHOSPHORUS / POTASSIUM / SODIUM / TOTAL BILIRUBIN / TOTAL PROTEIN / URIC ACID: tissue Plasma
[1] = 63 mg/kg, 120 h, dose level High, time 5 day
[2] = […], 72 h, dose 6.3 mg/Kg, dose level Low, time 3 day
[3] = […], 120 h, dose 6.3 mg/Kg, dose level Low, time 5 day

CNCCC=C1c2ccccc2CCc2ccccc21 [NORTRIPTYLINE]
ABSOLUTE BASOPHIL [1]: 0 CELLS/uL | ABSOLUTE EOSINOPHIL [1]: 0 CELLS/uL | ABSOLUTE LYMPHOCYTE [1]: 11759 CELLS/uL | ABSOLUTE MONOCYTE [1]: 53.67 CELLS/uL | ABSOLUTE SEGMENTED NEUTROPHIL [1]: 987.33 CELLS/uL | BASOPHIL [1]: 0% | EOSINOPHIL [1]: 0% | ERYTHROCYTE COUNT [1]: 5.77 x10E6/uL | HEMATOCRIT [1]: 35.97% | HEMOGLOBIN [1]: 14.67 G/DL | LEUKOCYTE COUNT [1]: 12.8 x10E3/uL | LYMPHOCYTE [1]: 91.67% | MEAN CORPUSCULAR HEMOGLOBIN [1]: 25.43 pg | MEAN CORPUSCULAR HEMOGLOBIN CONCENTRATION [1]: 40.77 G/DL | MEAN CORPUSCULAR VOLUME [1]: 62.33 fL | MONOCYTE [1]: 0.33% | NEUTROPHIL [1]: 8% | NUCLEATED RED BLOOD CELLS [1]: 0 /100WBC | PLATELET COUNT [1]: 1245.67 x10E3/uL | ALANINE AMINOTRANSFERASE [1]: 45.67 u/L | ALBUMIN [1]: 4.27 G/DL | ALKALINE PHOSPHATASE [1]: 460.33 u/L | ASPARTATE AMINOTRANSFERASE [1]: 77.33 u/L | BLOOD UREA NITROGEN [1]: 16.33 mg/dL | CARBON DIOXIDE [1]: 29 mmol/L | CHLORIDE [1]: 101.33 MEQ/L | CHOLESTEROL [1]: 78 mg/dL | CREATINE PHOSPHOKINASE [1]: 346.33 u/L | CREATININE [1]: 0.24 mg/dL | GLUCOSE [1]: 205 mg/dL | LACTATE DEHYDROGENASE [1]: 142 u/L | LIPASE [1]: 9.67 u/L | PHOSPHORUS [1]: 11.23 mg/dL | POTASSIUM [1]: 4.99 MEQ/L | SODIUM [1]: 144.43 MEQ/L | TOTAL BILIRUBIN [1]: 0.17 mg/dL | TOTAL PROTEIN [1]: 6.07 G/DL | URIC ACID [1]: 1.6 mg/dL | ABSOLUTE BASOPHIL [2]: 0 CELLS/uL | ABSOLUTE EOSINOPHIL [2]: 47.67 CELLS/uL | ABSOLUTE LYMPHOCYTE [2]: 13905.67 CELLS/uL | ABSOLUTE MONOCYTE [2]: 0 CELLS/uL | ABSOLUTE SEGMENTED NEUTROPHIL [2]: 1246.67 CELLS/uL | BASOPHIL [2]: 0% | EOSINOPHIL [2]: 0.33% | ERYTHROCYTE COUNT [2]: 5.4 x10E6/uL | HEMATOCRIT [2]: 34.5% | HEMOGLOBIN [2]: 13.8 G/DL | LEUKOCYTE COUNT [2]: 15.2 x10E3/uL | LYMPHOCYTE [2]: 90.67% | MEAN CORPUSCULAR HEMOGLOBIN [2]: 25.57 pg | MEAN CORPUSCULAR HEMOGLOBIN CONCENTRATION [2]: 39.97 G/DL | MEAN CORPUSCULAR VOLUME [2]: 63.87 fL | MONOCYTE [2]: 0% | NEUTROPHIL [2]: 9% | NUCLEATED RED BLOOD CELLS [2]: 0.33 /100WBC | PLATELET COUNT [2]: 1291.33 x10E3/uL | ALANINE AMINOTRANSFERASE [2]: 51.33 u/L | ALBUMIN [2]: 3.87 G/DL | ALKALINE PHOSPHATASE [2]: 385.33 u/L | ASPARTATE AMINOTRANSFERASE [2]: 86.33 u/L | BLOOD UREA NITROGEN [2]: 14.33 mg/dL | CARBON DIOXIDE [2]: 34 mmol/L | CHLORIDE [2]: 99.33 MEQ/L | CHOLESTEROL [2]: 71.33 mg/dL | CREATINE PHOSPHOKINASE [2]: 248 u/L | CREATININE [2]: 0.17 mg/dL | GLUCOSE [2]: 136.67 mg/dL | LACTATE DEHYDROGENASE [2]: 250.33 u/L | LIPASE [2]: 10 u/L | PHOSPHORUS [2]: 11.47 mg/dL | POTASSIUM [2]: 6.49 MEQ/L | SODIUM [2]: 143 MEQ/L | TOTAL BILIRUBIN [2]: 0.23 mg/dL | TOTAL PROTEIN [2]: 5.9 G/DL | URIC ACID [2]: 1.23 mg/dL | ABSOLUTE BASOPHIL [3]: 0 CELLS/uL | ABSOLUTE EOSINOPHIL [3]: 0 CELLS/uL | ABSOLUTE LYMPHOCYTE [3]: 14550 CELLS/uL | ABSOLUTE MONOCYTE [3]: 394 CELLS/uL | ABSOLUTE SEGMENTED NEUTROPHIL [3]: 2022.67 CELLS/uL | BASOPHIL [3]: 0% | EOSINOPHIL [3]: 0% | ERYTHROCYTE COUNT [3]: 5.68 x10E6/uL | HEMATOCRIT [3]: 35.47% | HEMOGLOBIN [3]: 14.63 G/DL | LEUKOCYTE COUNT [3]: 16.97 x10E3/uL | LYMPHOCYTE [3]: 85.67% | MEAN CORPUSCULAR HEMOGLOBIN [3]: 25.87 pg | MEAN CORPUSCULAR HEMOGLOBIN CONCENTRATION [3]: 41.2 G/DL | MEAN CORPUSCULAR VOLUME [3]: 62.7 fL | MONOCYTE [3]: 2.33% | NEUTROPHIL [3]: 12% | NUCLEATED RED BLOOD CELLS [3]: 0 /100WBC | PLATELET COUNT [3]: 1314.33 x10E3/uL | ALANINE AMINOTRANSFERASE [3]: 49.33 u/L | ALBUMIN [3]: 4.63 G/DL | ALKALINE PHOSPHATASE [3]: 430.67 u/L | ASPARTATE AMINOTRANSFERASE [3]: 87.33 u/L | BLOOD UREA NITROGEN [3]: 23 mg/dL | CARBON DIOXIDE [3]: 28 mmol/L | CHLORIDE [3]: 98.33 MEQ/L | CHOLESTEROL [3]: 70.33 mg/dL | CREATINE PHOSPHOKINASE [3]: 246 u/L | CREATININE [3]: 0.24 mg/dL | GLUCOSE [3]: 143.33 mg/dL | LACTATE DEHYDROGENASE [3]: 121 u/L | LIPASE [3]: 11 u/L | PHOSPHORUS [3]: 12.13 mg/dL | POTASSIUM [3]: 7.2 MEQ/L | SODIUM [3]: 141.23 MEQ/L | TOTAL BILIRUBIN [3]: 0.27 mg/dL | TOTAL PROTEIN [3]: 6.6 G/DL | URIC ACID [3]: 2.13 mg/dL
